Earlier results, collected in patent US8337481B2, “Method for treating otitis externa” (priority 2005, dated 2012).

Biological Half Life	Structure (SMILES)
18-36 Hours	C[C@H]1C[C@@H]2[C@H]([C@@H](O)C[C@@]3(C)[C@H]2CC[C@]3(O)C(=O)CO)[C@@]2(C)C=CC(=O)C=C12 [Methyl-prednisolone, methylprednisolone]
8-12 Hours	C[C@]12CCC(=O)C=C1CC[C@@H]1[C@@H]2[C@@H](O)C[C@@]2(C)[C@H]1CC[C@]2(O)C(=O)CO [hydrocortisone]
18-36 Hours	C[C@]12C=CC(=O)C=C1CC[C@@H]1[C@@H]2[C@@H](O)C[C@@]2(C)[C@H]1CC[C@]2(O)C(=O)CO [prednisolone]
18-36 Hours	C[C@]12C=CC(=O)C=C1CC[C@H]1[C@@H]3C[C@@H](O)[C@](O)(C(=O)CO)[C@@]3(C)C[C@H](O)[C@@]12F [triamcinolone]
